Experiments:
[1] = system: HEK-293 cells stably transfected with hERG potassium channels; assay: "Wash" protocol thallium flux fluorescence assay; assay type: cell-based; settings: range of dofetilide concentrations, slopes of normalized fluorescence 12-22 s, compared between indicators
Description: The wash protocol experiment was conducted as follows. To a 384-well, black-wall, clear bottom, poly-D-lysine coated plate, add 20 μl/well of α-MEM containing 10% fetal bovine serum and 1× glutaGRO (Cell Culture Medium) and a 1000 cell/μl suspension of HEK-293 cells stably transfected with hERG potassium channels (Cell Plate). Incubate the Cell Plate overnight in a 5% CO2 cell culture incubator at 37° C. Remove the Cell Culture Medium from the Cell Plate and replace it with 20 μl/well Hanks Balanced Salt Solution+20 mM HEPES pH 7.3 (Assay Buffer). Dissolve 25 μg of thallium ion indicator (also referred to as a “dye”) in 25 μl DMSO containing 7% (w/v) Pluronic F-127. Add 12.5 μl of the dissolved thallium ion indicator to 10 ml Assay Buffer (Dye Loading Solution). Add 20 μl/well of Dye Loading Solution to the Cell Plate. Incubate the Cell Plate containing Dye Loading Solution for 1 hour at room temperature. […] Analyze data representing the amplitude of the fluorescent signal for each well at each of the 120 time points acquired during the Data Acquisition Protocol using Microsoft Excel by first dividing the fluorescence values from each individual well at each time point by the fluorescent value for that well at the first time point (Normalized Fluorescence Values). Calculate slopes of the Normalized Fluorescence Values between the 12 second and 22 second time points (Slope Values). […]

[2] = system: HEK-293 cells stably transfected with hERG potassium channels; assay: "No-wash" protocol thallium flux fluorescence assay; assay type: cell-based; settings: no-wash protocol with 1.25 mM probenecid; range of dofetilide concentrations; compared to FluoZin-2, AM
Description: The no-wash protocol was conducted as follows. To a 384-well, black-wall, clear bottom, poly-D-lysine coated plate, add 20 μl/well of α-MEM containing 10% fetal bovine serum and 1× glutaGRO (Cell Culture Medium) and a 1000 cell/μl suspension of HEK-293 cells stably transfected with hERG potassium channels (Cell Plate). Incubate the Cell Plate overnight in a 5% CO2 cell culture incubator at 37° C. Remove the Cell Culture Medium from the Cell Plate and replace it with 20 μl/well Hanks Balanced Salt Solution+20 mM HEPES pH 7.3+1.25 mM Probenecid (sodium salt) (NW-Assay Buffer). Dissolve 25 μg thallium ion indicator (also referred to herein as a “dye”) in 25 μl DMSO containing 7% (w/v) Pluronic F-127. Add 12.5 μl of the dissolved thallium ion indicator to 10 ml Probenecid Assay Buffer (NW-Dye Loading Solution). Add 20 μl/well of Dye Loading Solution to the Cell Plate. […] Analyze data representing the amplitude of the fluorescent signal for each well at each of the 120 time points acquired during the Data Acquisition Protocol using Microsoft Excel by first dividing the fluorescence values from each individual well at each time point by the fluorescent value for that well at the first time point (Normalized Fluorescence Values). Calculate slopes of the Normalized Fluorescence Values between the 12 second and 22 second time points (Slope Values). […]

SMILES | fluorescence results (indicator performance, FIG. 1) [1] | normalized signal amplitude (FIG. 2) [2]
COc1cc(NC(=O)c2ccc3c(c2)C(=O)OC32c3ccc(OC(C)=O)cc3Oc3cc(OC(C)=O)ccc32)ccc1N(CC(=O)OCOC(C)=O)CC(=O)OCOC(C)=O [Example 1, bis(acetoxymethyl) 2,2′-((4-(3′,6′-diacetoxy-3-oxo-3H-spiro[isobenzofuran-1,9′-xanthen]-5-ylcarboxamido)-2-methoxyphenyl)azanediyl)diacetate] | essentially indistinguishable | substantial and unexpected improvement in normalized signal amplitude over FluoZin-2, AM
COc1cc(NC(=O)c2ccc3c(c2)C(=O)OC32c3cc(F)c(OC(C)=O)cc3Oc3cc(OC(C)=O)c(F)cc32)ccc1N(CC(=O)OCOC(C)=O)CC(=O)OCOC(C)=O [FluoZin-2, AM, reference compound] | essentially indistinguishable | –

— patent US9103791B1, “Thallium fluorescent ion indicator and assay” (Vanderbilt University, priority 2012, dated 2015)
